Results: PubChem BioAssay (NCI)
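In this assay, cells in 96-well plates receive the compound at five concentrations for 48 hours. Endpoints are linearly interpolated between the surrounding concentrations. Abbreviation: GI50, concentration required for 50% inhibition of growth. TGI marks complete inhibition of growth.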

Key:
Test in all cases: inhibition of tumour cell growth, NCI panel, 48 h
EKVX NSCLC = test system: EKVX NSCLC
RPMI-8226 leukemia = test system: RPMI-8226 leukemia
UO-31 renal = test system: UO-31 renal
SN12C renal = test system: SN12C renal
OVCAR-3 ovarian = test system: OVCAR-3 ovarian
NCI-H23 lung = test system: NCI-H23 lung
NCI/ADR-RES ovarian = test system: NCI/ADR-RES ovarian
OVCAR-4 ovarian = test system: OVCAR-4 ovarian
MOLT-4 leukemia = test system: MOLT-4 leukemia
MDA-MB-231 breast = test system: MDA-MB-231 breast
SW-620 colon = test system: SW-620 colon
MDA-MB-468 breast = test system: MDA-MB-468 breast
CAKI-1 renal = test system: CAKI-1 renal
SF-539 CNS = test system: SF-539 CNS
HCT-116 colon = test system: HCT-116 colon
786-0 renal = test system: 786-0 renal
SF-295 CNS = test system: SF-295 CNS
HOP-92 NSCLC = test system: HOP-92 NSCLC
RXF 393 renal = test system: RXF 393 renal
ACHN renal = test system: ACHN renal
HS 578T breast = test system: HS 578T breast
SK-MEL-5 melanoma = test system: SK-MEL-5 melanoma
SNB-19 CNS = test system: SNB-19 CNS
BT-549 breast = test system: BT-549 breast
HOP-62 NSCLC = test system: HOP-62 NSCLC
A498 renal = test system: A498 renal
SK-OV-3 ovarian = test system: SK-OV-3 ovarian
COLO 205 colon = test system: COLO 205 colon
MALME-3M melanoma = test system: MALME-3M melanoma
A549 NSCLC = test system: A549 NSCLC
TK-10 renal = test system: TK-10 renal
NCI-H226 lung = test system: NCI-H226 lung
U251 CNS = test system: U251 CNS
SK-MEL-28 melanoma = test system: SK-MEL-28 melanoma
CCRF-CEM leukemia = test system: CCRF-CEM leukemia
HL-60(TB) leukemia = test system: HL-60(TB) leukemia
SF-268 CNS = test system: SF-268 CNS
SK-MEL-2 melanoma = test system: SK-MEL-2 melanoma
NCI-H522 lung = test system: NCI-H522 lung
NCI-H460 lung = test system: NCI-H460 lung
SNB-75 CNS = test system: SNB-75 CNS
IGROV1 ovarian = test system: IGROV1 ovarian
T-47D breast = test system: T-47D breast
HT29 colon = test system: HT29 colon
LOX IMVI melanoma = test system: LOX IMVI melanoma
HCT-15 colon = test system: HCT-15 colon
HCC-2998 colon = test system: HCC-2998 colon
OVCAR-5 ovarian = test system: OVCAR-5 ovarian
UACC-257 melanoma = test system: UACC-257 melanoma
PC-3 prostate = test system: PC-3 prostate
KM12 colon = test system: KM12 colon
MCF7 breast = test system: MCF7 breast
DU-145 prostate = test system: DU-145 prostate
M14 melanoma = test system: M14 melanoma
UACC-62 melanoma = test system: UACC-62 melanoma
MDA-MB-435 = test system: MDA-MB-435
K-562 leukemia = test system: K-562 leukemia
OVCAR-8 ovarian = test system: OVCAR-8 ovarian

COc1ccc(-c2cc(C(=O)N=Nc3c(O)[nH]c4ccc(Br)cc34)c3ccccc3n2)cc1
GI50 (EKVX NSCLC): 10.5 µM
TGI (EKVX NSCLC): 22.4 µM
GI50 (RPMI-8226 leukemia): 6.37 µM
TGI (RPMI-8226 leukemia): > 100 µM
GI50 (UO-31 renal): 12.5 µM
TGI (UO-31 renal): 25 µM
GI50 (SN12C renal): 14.9 µM
TGI (SN12C renal): 30.3 µM
GI50 (OVCAR-3 ovarian): 12.3 µM
TGI (OVCAR-3 ovarian): 36.1 µM
GI50 (NCI-H23 lung): 3.09 µM
TGI (NCI-H23 lung): 13.3 µM
GI50 (NCI/ADR-RES ovarian): 8.75 µM
TGI (NCI/ADR-RES ovarian): 33.9 µM
GI50 (OVCAR-4 ovarian): 17.1 µM
TGI (OVCAR-4 ovarian): 72.2 µM
GI50 (MOLT-4 leukemia): 5.08 µM
TGI (MOLT-4 leukemia): > 100 µM
GI50 (MDA-MB-231 breast): 6.94 µM
TGI (MDA-MB-231 breast): 22.9 µM
GI50 (SW-620 colon): 2.28 µM
TGI (SW-620 colon): 6.83 µM
GI50 (MDA-MB-468 breast): 10.4 µM
TGI (MDA-MB-468 breast): 25.3 µM
GI50 (CAKI-1 renal): 13.9 µM
TGI (CAKI-1 renal): 40.1 µM
GI50 (SF-539 CNS): 15.6 µM
TGI (SF-539 CNS): 29.7 µM
GI50 (HCT-116 colon): 5.55 µM
TGI (HCT-116 colon): 66.4 µM
GI50 (786-0 renal): 19.4 µM
TGI (786-0 renal): 47.8 µM
GI50 (SF-295 CNS): 13.7 µM
TGI (SF-295 CNS): 27.2 µM
GI50 (HOP-92 NSCLC): 13.3 µM
TGI (HOP-92 NSCLC): 40.1 µM
GI50 (RXF 393 renal): 10 µM
TGI (RXF 393 renal): 22.6 µM
GI50 (ACHN renal): 11.1 µM
TGI (ACHN renal): 24.1 µM
GI50 (HS 578T breast): 14.3 µM
TGI (HS 578T breast): 55.1 µM
GI50 (SK-MEL-5 melanoma): 15.8 µM
TGI (SK-MEL-5 melanoma): 31.8 µM
GI50 (SNB-19 CNS): 15.5 µM
TGI (SNB-19 CNS): 28.9 µM
GI50 (BT-549 breast): 27.8 µM
TGI (BT-549 breast): 48.5 µM
GI50 (HOP-62 NSCLC): 16.5 µM
TGI (HOP-62 NSCLC): 36.7 µM
GI50 (A498 renal): 20.8 µM
TGI (A498 renal): 36.8 µM
GI50 (SK-OV-3 ovarian): 16.1 µM
TGI (SK-OV-3 ovarian): 34.8 µM
GI50 (COLO 205 colon): 16.1 µM
TGI (COLO 205 colon): 47.5 µM
GI50 (MALME-3M melanoma): 15.6 µM
TGI (MALME-3M melanoma): 34.9 µM
GI50 (A549 NSCLC): 9.06 µM
TGI (A549 NSCLC): 51.6 µM
GI50 (TK-10 renal): 22 µM
TGI (TK-10 renal): 41.2 µM
GI50 (NCI-H226 lung): 14.2 µM
TGI (NCI-H226 lung): 45.7 µM
GI50 (U251 CNS): 3.4 µM
TGI (U251 CNS): > 100 µM
GI50 (SK-MEL-28 melanoma): 14.5 µM
TGI (SK-MEL-28 melanoma): 28.1 µM
GI50 (CCRF-CEM leukemia): 3.09 µM
TGI (CCRF-CEM leukemia): > 100 µM
GI50 (HL-60(TB) leukemia): 24.7 µM
TGI (HL-60(TB) leukemia): > 100 µM
GI50 (SF-268 CNS): 17.9 µM
TGI (SF-268 CNS): 48.4 µM
GI50 (SK-MEL-2 melanoma): 18.2 µM
TGI (SK-MEL-2 melanoma): 33.9 µM
GI50 (NCI-H522 lung): 16.9 µM
TGI (NCI-H522 lung): 46.3 µM
GI50 (NCI-H460 lung): 3.7 µM
TGI (NCI-H460 lung): 16.1 µM
GI50 (SNB-75 CNS): 14.1 µM
TGI (SNB-75 CNS): 37.9 µM
GI50 (IGROV1 ovarian): 11.2 µM
TGI (IGROV1 ovarian): 25.9 µM
GI50 (T-47D breast): 19.8 µM
TGI (T-47D breast): 65.8 µM
GI50 (HT29 colon): 3.62 µM
TGI (HT29 colon): 14.5 µM
GI50 (LOX IMVI melanoma): 3.33 µM
TGI (LOX IMVI melanoma): 12.3 µM
GI50 (HCT-15 colon): 3.23 µM
TGI (HCT-15 colon): 11.9 µM
GI50 (HCC-2998 colon): 12.9 µM
TGI (HCC-2998 colon): 26.4 µM
GI50 (OVCAR-5 ovarian): 14.3 µM
TGI (OVCAR-5 ovarian): 27.6 µM
GI50 (UACC-257 melanoma): 16.6 µM
TGI (UACC-257 melanoma): 37.7 µM
GI50 (PC-3 prostate): 8.46 µM
TGI (PC-3 prostate): > 100 µM
GI50 (KM12 colon): 19 µM
TGI (KM12 colon): 85.7 µM
GI50 (MCF7 breast): 6.26 µM
TGI (MCF7 breast): 26.5 µM
GI50 (DU-145 prostate): 10.9 µM
TGI (DU-145 prostate): 30.1 µM
GI50 (M14 melanoma): 8.54 µM
TGI (M14 melanoma): 44.4 µM
GI50 (UACC-62 melanoma): 15.6 µM
TGI (UACC-62 melanoma): 30.2 µM
GI50 (MDA-MB-435): 13.3 µM
TGI (MDA-MB-435): 43.8 µM
GI50 (K-562 leukemia): 4.28 µM
TGI (K-562 leukemia): > 100 µM
GI50 (OVCAR-8 ovarian): 12.3 µM
TGI (OVCAR-8 ovarian): 31.4 µM
